Data published in ChEMBL document CHEMBL5653615 (J Biol Chem, 2013).

What was measured:
[1] = molecular target: Vascular endothelial growth factor receptor 1 (Homo sapiens) (UniProt P17948); experiment: Inhibition of human FLT1 at 18.6 nM by HotSpot assay relative to control
[2] = molecular target: Mitogen-activated protein kinase kinase kinase 11 (Homo sapiens) (UniProt Q16584); experiment: Inhibition of human MAP3K11 at 18.6 nM by HotSpot assay relative to control
[3] = molecular target: Casein kinase I isoform gamma-2 (Homo sapiens) (UniProt P78368); experiment: Inhibition of human CK1g2 at 18.6 nM by HotSpot assay relative to control
Sequence of Casein kinase I isoform gamma-2 (Homo sapiens) (P78368 whole entry, looked up, canonical isoform): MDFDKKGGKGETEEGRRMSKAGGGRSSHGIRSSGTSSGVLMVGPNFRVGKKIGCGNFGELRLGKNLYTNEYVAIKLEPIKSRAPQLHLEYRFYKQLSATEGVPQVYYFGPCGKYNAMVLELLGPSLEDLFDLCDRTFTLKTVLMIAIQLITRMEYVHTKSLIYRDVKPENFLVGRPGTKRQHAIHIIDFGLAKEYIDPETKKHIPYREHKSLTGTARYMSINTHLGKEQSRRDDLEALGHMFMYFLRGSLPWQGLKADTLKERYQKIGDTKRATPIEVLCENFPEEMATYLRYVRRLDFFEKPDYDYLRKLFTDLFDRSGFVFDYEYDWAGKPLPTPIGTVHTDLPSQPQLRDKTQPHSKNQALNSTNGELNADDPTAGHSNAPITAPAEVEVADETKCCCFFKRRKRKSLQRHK

[4] = molecular target: T1, 3-phosphoinositide-dependent protein kinase 1 (Homo sapiens) (UniProt O15530); experiment: Inhibition of human PDPK1 at 18.6 nM by HotSpot assay relative to control
T1 sequence (whole entry): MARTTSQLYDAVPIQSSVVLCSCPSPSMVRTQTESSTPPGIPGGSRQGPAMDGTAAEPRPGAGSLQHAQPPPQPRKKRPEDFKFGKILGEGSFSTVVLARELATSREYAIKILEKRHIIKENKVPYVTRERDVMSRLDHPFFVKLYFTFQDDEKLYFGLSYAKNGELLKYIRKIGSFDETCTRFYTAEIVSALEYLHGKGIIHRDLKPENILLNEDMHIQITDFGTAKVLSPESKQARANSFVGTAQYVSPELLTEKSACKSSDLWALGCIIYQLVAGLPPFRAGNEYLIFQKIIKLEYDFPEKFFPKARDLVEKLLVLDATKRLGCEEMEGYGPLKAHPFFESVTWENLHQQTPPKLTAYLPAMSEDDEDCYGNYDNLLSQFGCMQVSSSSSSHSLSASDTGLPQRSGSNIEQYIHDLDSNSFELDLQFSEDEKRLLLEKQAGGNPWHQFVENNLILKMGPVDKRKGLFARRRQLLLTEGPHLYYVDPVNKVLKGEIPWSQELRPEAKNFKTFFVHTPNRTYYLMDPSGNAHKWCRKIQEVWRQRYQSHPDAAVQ

[5] = molecular target: T2, Serine/threonine-protein kinase haspin (Homo sapiens) (UniProt Q8TF76); experiment: Inhibition of human Haspin at 18.6 nM by HotSpot assay relative to control
T2 sequence (whole entry): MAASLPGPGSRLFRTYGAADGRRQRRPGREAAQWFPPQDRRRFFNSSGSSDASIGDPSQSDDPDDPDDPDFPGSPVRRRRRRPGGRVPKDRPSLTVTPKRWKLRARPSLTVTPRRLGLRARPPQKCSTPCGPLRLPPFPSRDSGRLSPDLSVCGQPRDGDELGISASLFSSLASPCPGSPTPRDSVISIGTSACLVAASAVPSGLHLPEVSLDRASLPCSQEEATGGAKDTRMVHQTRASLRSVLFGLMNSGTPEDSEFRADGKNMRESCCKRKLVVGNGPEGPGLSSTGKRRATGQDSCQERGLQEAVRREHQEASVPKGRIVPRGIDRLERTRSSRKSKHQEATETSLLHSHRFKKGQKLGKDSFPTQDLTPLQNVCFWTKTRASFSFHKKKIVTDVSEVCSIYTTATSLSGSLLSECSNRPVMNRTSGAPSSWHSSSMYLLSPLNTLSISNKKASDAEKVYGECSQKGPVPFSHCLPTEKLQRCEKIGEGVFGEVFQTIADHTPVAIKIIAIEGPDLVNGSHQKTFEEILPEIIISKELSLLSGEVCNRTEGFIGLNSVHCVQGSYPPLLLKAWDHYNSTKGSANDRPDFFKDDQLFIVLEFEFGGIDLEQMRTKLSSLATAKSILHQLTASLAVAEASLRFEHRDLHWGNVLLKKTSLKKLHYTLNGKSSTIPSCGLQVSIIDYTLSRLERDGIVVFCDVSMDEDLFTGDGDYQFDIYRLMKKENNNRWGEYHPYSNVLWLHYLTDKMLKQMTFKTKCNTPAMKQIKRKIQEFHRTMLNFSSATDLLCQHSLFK

[6] = molecular target: Calcium/calmodulin-dependent protein kinase type 1 (Homo sapiens) (UniProt Q14012); experiment: Inhibition of human CAMK1a at 18.6 nM by HotSpot assay relative to control
Sequence of Calcium/calmodulin-dependent protein kinase type 1 (Homo sapiens) (Q14012 whole entry, looked up): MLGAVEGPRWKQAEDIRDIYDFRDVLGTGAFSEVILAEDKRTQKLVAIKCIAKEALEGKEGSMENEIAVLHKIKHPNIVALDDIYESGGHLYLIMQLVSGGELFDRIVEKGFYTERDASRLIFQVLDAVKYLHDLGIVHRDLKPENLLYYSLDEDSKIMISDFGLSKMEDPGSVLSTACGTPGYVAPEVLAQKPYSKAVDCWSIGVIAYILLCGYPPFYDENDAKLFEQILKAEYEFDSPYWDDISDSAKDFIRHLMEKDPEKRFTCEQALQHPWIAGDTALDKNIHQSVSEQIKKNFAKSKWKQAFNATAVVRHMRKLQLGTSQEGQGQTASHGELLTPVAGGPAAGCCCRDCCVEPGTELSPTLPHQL

[7] = molecular target: Mast/stem cell growth factor receptor Kit (Homo sapiens) (UniProt P10721); experiment: Inhibition of human c-Kit at 1.82 nM by HotSpot assay relative to control
Sequence of Mast/stem cell growth factor receptor Kit (Homo sapiens) (P10721 whole entry): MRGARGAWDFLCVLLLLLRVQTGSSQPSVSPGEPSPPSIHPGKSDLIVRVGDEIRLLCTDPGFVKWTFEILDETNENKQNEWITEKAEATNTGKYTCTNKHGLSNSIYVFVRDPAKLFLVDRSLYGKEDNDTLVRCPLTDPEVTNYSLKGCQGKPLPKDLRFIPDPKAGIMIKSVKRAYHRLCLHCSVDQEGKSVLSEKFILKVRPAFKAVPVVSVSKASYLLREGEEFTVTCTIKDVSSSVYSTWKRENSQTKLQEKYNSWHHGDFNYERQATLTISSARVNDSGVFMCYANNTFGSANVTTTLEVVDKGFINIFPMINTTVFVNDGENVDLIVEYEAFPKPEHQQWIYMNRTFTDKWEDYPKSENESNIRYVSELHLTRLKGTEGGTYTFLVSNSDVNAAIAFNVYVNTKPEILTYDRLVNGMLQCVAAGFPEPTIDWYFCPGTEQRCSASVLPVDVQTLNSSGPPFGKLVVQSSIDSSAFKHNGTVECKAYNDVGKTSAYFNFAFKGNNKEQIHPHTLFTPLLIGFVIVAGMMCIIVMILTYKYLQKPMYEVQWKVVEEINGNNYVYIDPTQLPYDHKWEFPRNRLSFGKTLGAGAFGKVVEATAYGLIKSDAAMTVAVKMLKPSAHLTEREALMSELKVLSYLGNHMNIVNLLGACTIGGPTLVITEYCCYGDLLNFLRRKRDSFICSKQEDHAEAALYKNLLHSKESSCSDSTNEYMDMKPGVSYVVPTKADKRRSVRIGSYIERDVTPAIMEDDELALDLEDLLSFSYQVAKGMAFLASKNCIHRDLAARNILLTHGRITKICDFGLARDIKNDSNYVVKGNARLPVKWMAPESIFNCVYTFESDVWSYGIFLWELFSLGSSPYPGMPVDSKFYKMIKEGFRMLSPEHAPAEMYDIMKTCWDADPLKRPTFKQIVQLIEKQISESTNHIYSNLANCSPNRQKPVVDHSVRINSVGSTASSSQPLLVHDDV

[8] = molecular target: T3, Serine/threonine-protein kinase D1 (Homo sapiens) (UniProt Q15139); experiment: Inhibition of human PRKD1 at 1.82 nM by HotSpot assay relative to control
T3 sequence (whole entry): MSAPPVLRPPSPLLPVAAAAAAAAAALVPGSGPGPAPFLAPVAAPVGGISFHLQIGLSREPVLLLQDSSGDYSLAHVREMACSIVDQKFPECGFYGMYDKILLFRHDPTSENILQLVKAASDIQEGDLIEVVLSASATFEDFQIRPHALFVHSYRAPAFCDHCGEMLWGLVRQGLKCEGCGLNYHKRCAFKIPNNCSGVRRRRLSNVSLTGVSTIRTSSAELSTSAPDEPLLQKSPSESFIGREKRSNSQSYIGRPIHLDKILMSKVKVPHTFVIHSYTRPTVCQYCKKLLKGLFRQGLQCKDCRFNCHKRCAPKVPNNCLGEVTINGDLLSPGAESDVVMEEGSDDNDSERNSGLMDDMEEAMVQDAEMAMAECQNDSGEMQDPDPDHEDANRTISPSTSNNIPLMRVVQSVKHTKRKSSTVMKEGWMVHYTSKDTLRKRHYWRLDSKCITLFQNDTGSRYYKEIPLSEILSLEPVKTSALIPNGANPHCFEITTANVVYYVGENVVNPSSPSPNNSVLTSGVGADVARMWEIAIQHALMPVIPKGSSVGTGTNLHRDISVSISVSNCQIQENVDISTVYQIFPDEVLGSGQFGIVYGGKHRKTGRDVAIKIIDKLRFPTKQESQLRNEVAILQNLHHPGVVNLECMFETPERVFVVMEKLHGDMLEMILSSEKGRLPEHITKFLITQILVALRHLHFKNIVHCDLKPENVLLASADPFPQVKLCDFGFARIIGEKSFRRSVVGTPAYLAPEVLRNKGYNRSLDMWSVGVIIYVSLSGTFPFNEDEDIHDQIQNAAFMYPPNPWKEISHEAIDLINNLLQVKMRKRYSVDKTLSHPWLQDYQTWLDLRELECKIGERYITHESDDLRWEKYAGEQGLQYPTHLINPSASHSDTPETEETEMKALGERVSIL

[9] = molecular target: Receptor tyrosine-protein kinase erbB-2 (Homo sapiens) (UniProt P04626); experiment: Inhibition of human ERBB2 at 1.82 nM by HotSpot assay relative to control
[10] = molecular target: Calcium/calmodulin-dependent protein kinase type 1B (Homo sapiens) (UniProt Q6P2M8); experiment: Inhibition of human CAMK1b at 1.82 nM by HotSpot assay relative to control
Sequence of Calcium/calmodulin-dependent protein kinase type 1B (Homo sapiens) (Q6P2M8 whole entry): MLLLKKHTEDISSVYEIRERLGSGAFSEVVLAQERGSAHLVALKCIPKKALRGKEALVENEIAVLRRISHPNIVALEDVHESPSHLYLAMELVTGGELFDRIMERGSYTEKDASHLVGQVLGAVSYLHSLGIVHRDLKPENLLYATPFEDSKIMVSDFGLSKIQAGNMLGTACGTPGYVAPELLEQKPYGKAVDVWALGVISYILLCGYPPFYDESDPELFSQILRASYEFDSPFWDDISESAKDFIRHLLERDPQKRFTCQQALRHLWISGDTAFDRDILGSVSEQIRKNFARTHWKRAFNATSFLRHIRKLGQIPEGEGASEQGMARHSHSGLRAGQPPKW

[11] = molecular target: Death-associated protein kinase 1 (Homo sapiens) (UniProt P53355); experiment: Inhibition of human DAPK1 at 1.82 nM by HotSpot assay relative to control
Sequence of Death-associated protein kinase 1 (Homo sapiens) (P53355 whole entry, looked up): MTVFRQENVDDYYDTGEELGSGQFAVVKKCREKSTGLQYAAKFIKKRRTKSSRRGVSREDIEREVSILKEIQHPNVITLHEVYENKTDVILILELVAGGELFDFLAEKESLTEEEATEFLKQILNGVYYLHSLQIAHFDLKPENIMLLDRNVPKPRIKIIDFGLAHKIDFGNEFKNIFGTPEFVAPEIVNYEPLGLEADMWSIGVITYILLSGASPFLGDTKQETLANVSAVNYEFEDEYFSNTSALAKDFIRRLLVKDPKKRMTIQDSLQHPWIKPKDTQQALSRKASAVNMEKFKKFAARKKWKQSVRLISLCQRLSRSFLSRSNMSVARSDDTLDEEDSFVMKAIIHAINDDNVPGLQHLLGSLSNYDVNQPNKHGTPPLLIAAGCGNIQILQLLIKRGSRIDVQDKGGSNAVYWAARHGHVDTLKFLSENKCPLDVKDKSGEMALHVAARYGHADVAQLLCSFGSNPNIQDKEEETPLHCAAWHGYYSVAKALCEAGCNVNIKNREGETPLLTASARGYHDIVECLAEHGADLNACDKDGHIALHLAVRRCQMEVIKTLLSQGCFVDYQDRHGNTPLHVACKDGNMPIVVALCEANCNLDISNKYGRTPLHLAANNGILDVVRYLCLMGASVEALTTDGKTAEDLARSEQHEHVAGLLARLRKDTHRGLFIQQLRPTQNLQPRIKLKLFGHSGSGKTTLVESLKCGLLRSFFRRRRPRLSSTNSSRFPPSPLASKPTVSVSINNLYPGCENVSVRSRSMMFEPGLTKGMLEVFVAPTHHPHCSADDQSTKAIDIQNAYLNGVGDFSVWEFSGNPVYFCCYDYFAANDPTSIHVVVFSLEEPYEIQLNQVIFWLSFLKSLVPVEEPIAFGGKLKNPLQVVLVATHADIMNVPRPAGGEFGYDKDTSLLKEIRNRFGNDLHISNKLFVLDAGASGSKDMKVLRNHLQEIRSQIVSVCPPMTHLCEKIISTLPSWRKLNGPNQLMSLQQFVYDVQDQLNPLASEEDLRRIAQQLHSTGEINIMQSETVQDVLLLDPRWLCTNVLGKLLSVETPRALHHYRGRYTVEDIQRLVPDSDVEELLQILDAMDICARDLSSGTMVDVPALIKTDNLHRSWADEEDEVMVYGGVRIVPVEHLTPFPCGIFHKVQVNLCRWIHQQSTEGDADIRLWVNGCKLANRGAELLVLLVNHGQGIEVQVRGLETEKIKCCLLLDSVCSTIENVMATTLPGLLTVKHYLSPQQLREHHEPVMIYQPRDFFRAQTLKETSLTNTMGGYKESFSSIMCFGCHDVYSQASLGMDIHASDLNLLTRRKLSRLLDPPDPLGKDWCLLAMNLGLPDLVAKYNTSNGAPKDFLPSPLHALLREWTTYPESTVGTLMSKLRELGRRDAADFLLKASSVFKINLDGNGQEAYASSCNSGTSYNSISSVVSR

[12] = molecular target: Homeodomain-interacting protein kinase 2 (Homo sapiens) (UniProt Q9H2X6); experiment: Inhibition of human HIPK2 at 1.82 nM by HotSpot assay relative to control

Sequence of Vascular endothelial growth factor receptor 1 (Homo sapiens) (P17948 whole entry): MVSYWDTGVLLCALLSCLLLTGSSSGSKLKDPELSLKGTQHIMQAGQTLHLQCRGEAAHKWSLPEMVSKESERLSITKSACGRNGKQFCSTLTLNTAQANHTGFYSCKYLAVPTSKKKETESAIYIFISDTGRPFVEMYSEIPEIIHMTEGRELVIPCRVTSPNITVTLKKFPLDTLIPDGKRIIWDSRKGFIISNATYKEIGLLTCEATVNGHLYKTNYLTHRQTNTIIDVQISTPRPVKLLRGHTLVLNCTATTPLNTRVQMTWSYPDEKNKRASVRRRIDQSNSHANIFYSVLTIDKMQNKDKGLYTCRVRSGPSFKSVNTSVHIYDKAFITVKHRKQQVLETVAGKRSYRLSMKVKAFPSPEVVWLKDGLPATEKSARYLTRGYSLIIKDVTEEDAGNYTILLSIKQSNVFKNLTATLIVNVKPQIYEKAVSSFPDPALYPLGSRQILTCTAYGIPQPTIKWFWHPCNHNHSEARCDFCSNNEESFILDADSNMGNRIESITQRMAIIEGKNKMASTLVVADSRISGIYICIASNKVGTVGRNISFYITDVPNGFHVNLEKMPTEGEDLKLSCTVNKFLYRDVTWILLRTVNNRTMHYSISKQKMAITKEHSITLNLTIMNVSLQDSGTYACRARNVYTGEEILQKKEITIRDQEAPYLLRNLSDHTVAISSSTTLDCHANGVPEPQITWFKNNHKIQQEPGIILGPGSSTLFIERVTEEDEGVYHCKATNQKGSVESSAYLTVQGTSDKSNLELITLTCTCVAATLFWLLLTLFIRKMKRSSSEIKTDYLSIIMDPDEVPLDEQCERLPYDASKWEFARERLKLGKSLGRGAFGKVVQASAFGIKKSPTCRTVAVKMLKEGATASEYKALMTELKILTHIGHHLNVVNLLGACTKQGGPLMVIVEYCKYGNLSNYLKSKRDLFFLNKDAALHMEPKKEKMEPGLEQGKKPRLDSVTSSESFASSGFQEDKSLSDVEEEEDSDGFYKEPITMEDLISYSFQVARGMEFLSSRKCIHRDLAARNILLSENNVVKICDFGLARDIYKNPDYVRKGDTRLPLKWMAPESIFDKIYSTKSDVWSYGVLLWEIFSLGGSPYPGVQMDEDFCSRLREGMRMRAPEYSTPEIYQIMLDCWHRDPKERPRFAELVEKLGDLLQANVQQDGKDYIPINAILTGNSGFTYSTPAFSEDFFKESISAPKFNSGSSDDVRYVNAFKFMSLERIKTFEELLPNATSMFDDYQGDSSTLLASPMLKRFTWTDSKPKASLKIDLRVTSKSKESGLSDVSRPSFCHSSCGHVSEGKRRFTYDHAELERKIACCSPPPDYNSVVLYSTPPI

inhibition [1] | inhibition [2] | inhibition [3] | inhibition [4] | inhibition [5] | inhibition [6] | inhibition [7] | inhibition [8] | inhibition [9] | inhibition [10] | inhibition [12] | Structure (SMILES) | inhibition [11]
-4.23% | 0.31% | -6.22% | -0.41% | -1.76% | 9.19% |  |  |  |  |  | C[C@]1(O)C[C@@H](c2nc(-c3ccc4ccc(-c5ccccc5)nc4c3)c3c(N)nccn32)C1 | 
 |  |  |  |  |  | 2.48% | -5.1% | 5.5% | -2.9% | 3.96% | C[C@@]1(C(=O)Nc2ccc(F)nc2)CCCN1c1nc(Nc2cc(C3CC3)n[nH]2)c2cccn2n1 | 3.56%
